Experimental data from paper PMC9405102, “Targeted Modification and Structure-Activity Study of GL-29, an Analogue of the Antimicrobial Peptide Palustrin-2ISb” (Antibiotics, 2022).
Values after ≈ are worked out from the molar mass of the structure shown. Like-named read-outs stand apart in the source and are kept apart here. Where a SMILES comes first, the peptide text is derived from it. Where no end group is shown, it is not given here.

Assays:
[1] = test system: S. aureus (ATCC CRM 6538); assay type: cell-based, Staphylococcus aureus
Method: The MBIC and MBEC assays were performed to measure the inhibition and eradication of bacterial biofilm in the presence of different concentrations of peptides. Gram-positive bacteria were inoculated in Luria–Bertani (LB) broth at 37 °C overnight whereas Gram-negative bacteria were inoculated in tryptic soy broth (TSB), and then sub-cultured until reaching the logarithmic growth phase by measuring the OD values at a wavelength of 550nm. For the MBIC assay, 99 µL of diluted bacterial suspension (5 × 10^5 CFU/mL) was mixed with 1 µL of prepared peptide solutions in the wells of a round-bottomed 96-well plate, achieving the final concentrations from 512 to 1 µM, and then incubated at 37 °C for 24 h in a shaking incubator at 200 revolutions per minute (rpm). After this, the plate was washed twice by PBS and fixed with methanol for 30 min. For MBEC assay, 100 µL of diluted bacterial suspension (5 × 10^5 CFU/mL) was seeded into a round-bottomed 96-well plate and incubated at 37 °C for 24 h in a shaking incubator at 200 rpm to obtain mature biofilm. After this, plates were washed twice by PBS and incubated with different concentrations of peptide solution from 512 to 1 µM at 37 °C for 24 h. Afterwards, the plate was washed twice with PBS and fixed with methanol for 30 min. Then, both MBIC and MBEC plates were stained by 130 μL of 0.1% (g/v) crystal violet solutions for 30 min and washed with PBS until no apparent staining was observed. Evaporating crystal violet stains were dissolved by 33% (v/v) acetic acid, and the absorbance values were measured by a Synergy HT Microplate Reader (BioTek, Minneapolis, MN, USA) set to 595 nm. The minimum concentration that inhibited the formation of biofilm was defined when compared to the negative control group, as the MBIC. The minimum concentration that eradicated the biofilm was defined, when compared to the negative control group, as the MBEC. The biofilm assays were performed in triplicate.

[2] = test system: S. aureus (ATCC CRM 6538); assay: SYTOX Green dye uptake membrane permeability assay; assay type: cell-based, Staphylococcus aureus; conditions: 4 μM peptide, 2 h
Method: Bacteria were inoculated into TSB medium (Gram-positive bacteria) or LB medium (Gram-negative bacteria) at 37 °C overnight, and then sub-cultured at 37 °C for about 2.5 h. Subsequently, the cell cultures were centrifuged at 1000× g at 4 °C for 10 min to collect bacteria cells at the bottom. After the cells were washed twice with 5% TSB or 5% LB in 0.85% NaCl solution, they were resuspended with 5% TSB or 5% LB in 0.85% NaCl solution to obtain a cell concentration of 1 × 10^8 CFU /mL by measuring the optical density (OD) value at 590 nm (Gram-positive bacteria: 0.68–0.72, Gram-negative bacteria: 0.65–0.7). The cell suspensions were then mixed with peptides at a range of concentrations, according to the MIC of antimicrobial assays, in a black 96 well plate and incubated for 2 h at 37 °C. After the incubation, the cells were stained with SYTOX^TM Green Nucleic Acid Stain (Thermo Fisher Scientific, Waltham, MA, USA) dissolved in 5% TSB in 0.85% NaCl to a final concentration of 5 μM and placed in a shaking incubator for 5 min avoiding from light. Bacterial cells treated with 16 μM melittin were used as positive control. The fluorescence intensity was measured with a Synergy HT plate reader (BioTek, USA) at excitation and emission wavelengths of 485 and 528 nm, respectively.

horse erythrocytes = assay type: cell-based; conditions: red cells of horse, 2 h
Method: The haemolysis assays were performed by incubating prewashed erythrocyte suspension obtained from fresh defibrinated horse blood (TCS Biosciences Ltd., Buckingham, UK) with a range of peptides at final concentrations from 512 to 1 μM, for 2 h at 37 °C. The red cell suspensions were washed with phosphate-buffered saline (PBS) until the supernatant was clear and then diluted with PBS to form a 2% cell suspension. Peptides were 2-fold diluted by the 2% cell suspension to reach the final concentration range from 512 to 1 μM. The haemolysis of the cell suspensions with either 1% (v/v) Triton X-100 or PBS, were considered as positive controls and negative controls, respectively. After incubation, the extent of haemolysis was determined by measuring the absorbance of the supernatant from each sample at 570 nm with a Synergy HT plate reader (BioTek, USA).
(§1) Data were analysed using Prism (Version 8.2.1; GraphPad Software, Inc, San Diego, CA, USA). Error bars in the graphs represented standard errors of means (SEM) of nine repeats from three independent tests. The statistical significance was calculated using two-way ANOVA and is indicated as ns (non-significant difference), * (p < 0.05), ** (p < 0.01), *** (p < 0.001), ****(p < 0.0001). The HC10, HC50 and IC50 values were calculated using the online tool AAT Bioquest (https://www.aatbio.com/index.html, accessed on 6 May 2022).

[3] = test system: Escherichia coli (E. coli); design: method as in PMID 21911019; conditions: cited from earlier work
[4] = test system: human keratinocyte cell line, HaCaT; assay type: cell-based; conditions: 24 h
Method: (§2) The proliferative inhibition effect of GL-29 and its analogues were assessed by MTT assay as described in a previous study. HaCaT cell line (human keratinocytes) and four cancer cell lines, U251MG (human glioblastoma astrocytoma cell line), HCT116 (human colon cancer cell line), H157 (human non-small lung cancer cell line) and H838 (human lung carcinoma cancer cell line), were used in this assay. A total of 8000 cells/per well were seeded in the 96-well plate for 24 h and then treated with peptides at the concentration from 100 μM to 100 nM for 24 h. In this assay, 1% Triton X-100 and PBS were set as a positive and negative control, respectively. After which, the formazan was dissolved in DMSO and the OD value was detected by use of a Synergy HT plate reader (BioTek, Minneapolis, MN, USA) at λ = 570 nm.
as §1

[5] = test system: methicillin-resistant S. aureus (MRSA); design: method as in PMID 21911019; conditions: cited from earlier work
C. albicans = test system: C. albicans; design: method as in PMID 21911019; conditions: C. albicans; cited from earlier work
U251MG = assay: MTT antiproliferative assay; assay type: cell-based, human
Method: as §2, §1

HCT116 = assay: MTT antiproliferative assay; assay type: cell-based, human
Method: as §2, §1

H157 = assay: MTT antiproliferative assay; assay type: cell-based, human; conditions: 24 h
Method: as §2, §1

H838 = assay: MTT antiproliferative assay; assay type: cell-based, human
Method: as §2, §1

| Molecule | MBEC ([1]; ATCC CRM 6538, 24 h) [µM] | MBIC ([1]; ATCC CRM 6538, 24 h) [µM] | membrane permeabilisation (SYTOX Green uptake) [2] [%] | HC10 (horse erythrocytes) [µM] | HC50 (horse erythrocytes) [µM] | MIC [3] [µM] | IC50 [4] [µM] | MIC [5] [µM] | MIC (C. albicans) [µM] | IC50 (U251MG; MTT, 24 h) [µM] | IC50 (HCT116; HCT116, MTT, 24 h) [µM] | IC50 (H157) [µM] | IC50 (H838; H838, MTT, 24 h) [µM] | MBEC ([1]; biofilm eradication, S. aureus (ATCC CRM 6538)) [µM] | MBIC ([1]; biofilm formation, S. aureus (ATCC CRM 6538)) [µM] | inhibition of proliferative activity (U251MG; 100 µM (highest concentration)) | inhibition of proliferative activity (HCT116; HCT116, 100 µM (highest concentration)) | inhibition of proliferative activity (H838; H838, 100 µM (highest concentration)) |
| --- | --- | --- | --- | --- | --- | --- | --- | --- | --- | --- | --- | --- | --- | --- | --- | --- | --- | --- |
| CC[C@H](C)[C@H](NC(=O)[C@H](CCCCN)NC(=O)[C@@H](NC(=O)[C@H](CO)NC(=O)[C@H](CC(N)=O)NC(=O)[C@H](Cc1c[nH]c2ccccc12)NC(=O)[C@H](CC(C)C)NC(=O)CN)[C@@H](C)CC)C(=O)N[C@@H](C)C(=O)NCC(=O)N[C@@H](CCCCN)C(=O)N[C@@H](CCCCN)C(=O)N[C@@H](CC(C)C)C(=O)N[C@@H](Cc1ccccc1)C(=O)N[C@H](C(=O)N[C@@H](CC(N)=O)C(=O)N[C@H](C(=O)N[C@@H](CC(C)C)C(=O)N[C@@H](CC(=O)O)C(=O)N[C@@H](CCCCN)C(=O)N[C@H](C(=O)N[C@@H](CCCNC(=N)N)C(=O)N[C@H]1CSSC[C@@H](C(=O)O)NC(=O)CNC(=O)CNC(=O)[C@H](C)NC(=O)[C@H](C(C)C)NC(=O)[C@H](CCCCN)NC1=O)[C@@H](C)CC)C(C)C)C(C)C [GL-29] (HELM PEPTIDE1{G.L.W.N.S.I.K.I.A.G.K.K.L.F.V.N.V.L.D.K.I.R.C.K.V.A.G.G.C}$PEPTIDE1,PEPTIDE1,23:R3-29:R3$$$V2.0; N-terminus and C-terminus assumed; bridges inferred) | 128 | 4 | 100 | 5.86 | 33.03 | 1.6 (≈ 5.01 µg/mL) | 5.05 | 12.5 (≈ 39.1 µg/mL) | 100 (≈ 313 µg/mL) | – | – | – | – | – | – | – | – | – |
| GLWNSIKIAGKKLFVNVLDKIR-NH2 [GL-22] | > 512 | 8 | – | 87.304 | 254.11 | – | 38.9 | – | – | 40.6 | 129 | 9.36 | 25.2 | – | – | – | – | – |
| GLWNSIKIA-NH2 [GL-9, GLWNSIKIA-NH2] | – | – | – | – | – | – | – | – | – | – | – | – | – | >512 | >512 | 20–40% | 20–40% | 20–40% |
